Laboratory results reported in patent US20220105058A1, “USE OF 3-O-SULFAMATE-16,16-DIMETHYL-D-HOMOEQUILENIN TO TREAT ONCOLOGICAL DISEASES” (priority 2018, published 2022).

Columns and labels:
[1] = second class: low solubility and high permeability; first class: high solubility and high permeability; cited from earlier work
[2] = release of free hormone; cited from earlier work
[3] = system: triple negative breast cancer MDA-MB-231 cell line; test: cell proliferation in MDA-MB-231; type: cell-based

SMILES	class according to the biopharmaceutical classification system (BCS) [1]	also measured
N#Cc1ccc(C(c2ccc(C#N)cc2)n2cncn2)cc1 [letrozole]	first class	–
C[C@]12CC[C@@H]3c4ccc(OS(N)(=O)=O)cc4CC[C@H]3[C@@H]1CCC2=O [estrone sulfamate]	–	uterotropic activity [2]: strong uterotropic activity
CC(C)(C#N)c1cc(Cn2cncn2)cc(C(C)(C)C#N)c1 [anastrazole]	first class	–
COc1cc([C@@H]2c3cc4c(cc3[C@@H](O[C@@H]3O[C@@H]5CO[C@@H](C)O[C@H]5[C@H](O)[C@H]3O)[C@H]3COC(=O)[C@H]23)OCO4)cc(OC)c1O [etoposide, reference compound]	–	inhibition of cell proliferation [3]: similar
